Assays:
HUVEC = experiment: Antiproliferative activity against human HUVEC cells assessed as reduction in cell viability after 72 hrs by trypan blue assay; type: functional
MSTO-211H = experiment: Antiproliferative activity against human MSTO-211H cells assessed as cell viability after 72 hrs by trypan blue assay; type: functional
A-431 = experiment: Antiproliferative activity against human A431 cells assessed as cell viability after 72 hrs by trypan blue assay; type: functional; conditions: A-431, 72 h
HeLa = experiment: Antiproliferative activity against human HeLa cells assessed as cell viability after 72 hrs by trypan blue assay; type: functional
Aorta [1] = experiment: Anti-angiogenic activity in rat aortic explant assessed as microvessel sprouting inhibition at 10 uM incubated for 7 days by rat aortic ring assay; type: functional; conditions: 168 h
Aorta [2] = experiment: Anti-angiogenic activity in rat aortic explant assessed as microvessel sprouting inhibition at 100 nM incubated for 7 days by rat aortic ring assay; type: functional; conditions: 168 h
Aorta [3] = experiment: Anti-angiogenic activity in rat aortic explant assessed as microvessel sprouting inhibition at 5 uM incubated for 7 days by rat aortic ring assay; type: functional; conditions: 168 h
Aorta [4] = experiment: Anti-angiogenic activity in rat aortic explant assessed as microvessel sprouting inhibition at 1 uM incubated for 7 days by rat aortic ring assay; type: functional; conditions: 168 h
[5] = biological target: Dual specificity mitogen-activated protein kinase kinase 1 (Homo sapiens) (UniProt Q02750); experiment: Inhibition of human MEK1 at 10 uM by kinase inhibition assay
[6] = biological target: Rho-associated protein kinase 1 (Homo sapiens) (UniProt Q13464); experiment: Inhibition of human ROCK1 at 10 uM by kinase inhibition assay
[7] = biological target: T1, Aurora kinase A (Homo sapiens) (UniProt O14965); experiment: Inhibition of human AurA kinase at 10 uM by kinase inhibition assay
T1 sequence (whole entry): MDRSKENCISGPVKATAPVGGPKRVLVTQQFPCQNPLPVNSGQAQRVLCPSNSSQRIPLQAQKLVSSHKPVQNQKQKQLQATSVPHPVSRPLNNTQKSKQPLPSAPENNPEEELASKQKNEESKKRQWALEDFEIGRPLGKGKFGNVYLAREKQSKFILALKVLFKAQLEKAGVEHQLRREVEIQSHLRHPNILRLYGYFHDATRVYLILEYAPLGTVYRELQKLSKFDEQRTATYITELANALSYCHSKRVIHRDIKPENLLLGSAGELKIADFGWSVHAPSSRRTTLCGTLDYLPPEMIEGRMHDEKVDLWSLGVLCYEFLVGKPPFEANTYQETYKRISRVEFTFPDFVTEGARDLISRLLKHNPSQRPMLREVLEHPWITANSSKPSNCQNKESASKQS

[8] = biological target: Proto-oncogene tyrosine-protein kinase Src (Homo sapiens) (UniProt P12931); experiment: Inhibition of human Src kinase at 10 uM by kinase inhibition assay
[9] = biological target: Mitogen-activated protein kinase 3 (Homo sapiens) (UniProt P27361); experiment: Inhibition of human ERK1 at 10 uM by kinase inhibition assay
[10] = biological target: Epidermal growth factor receptor (Homo sapiens, UniProt P00533)
[11] = biological target: Focal adhesion kinase 1 (Homo sapiens) (UniProt Q05397); experiment: Inhibition of human FAK at 10 uM by kinase inhibition assay
[12] = biological target: Platelet-derived growth factor receptor beta (Homo sapiens) (UniProt P09619); experiment: Inhibition of human PDGFRbeta at 10 uM by kinase inhibition assay
[13] = biological target: Cyclin-dependent kinase 1 (Homo sapiens) (UniProt P06493); experiment: Inhibition of human CDK1 at 10 uM by kinase inhibition assay
[14] = biological target: RAC-alpha serine/threonine-protein kinase (Homo sapiens) (UniProt P31749); experiment: Inhibition of human Akt1 at 10 uM by kinase inhibition assay
[15] = biological target: RAF proto-oncogene serine/threonine-protein kinase (Homo sapiens) (UniProt P04049); experiment: Inhibition of human RAF1 at 10 uM by kinase inhibition assay
[16] = biological target: Vascular endothelial growth factor receptor 2 (Homo sapiens, UniProt P35968); experiment: Inhibition of human KDR incubated for 50 mins by omnia tyr peptide 8 substrate based fluorescence assay
HL-60 = experiment: Antiproliferative activity against human HL60 cells assessed as growth inhibition; type: functional

Sequence of RAC-alpha serine/threonine-protein kinase (Homo sapiens) (P31749 whole entry): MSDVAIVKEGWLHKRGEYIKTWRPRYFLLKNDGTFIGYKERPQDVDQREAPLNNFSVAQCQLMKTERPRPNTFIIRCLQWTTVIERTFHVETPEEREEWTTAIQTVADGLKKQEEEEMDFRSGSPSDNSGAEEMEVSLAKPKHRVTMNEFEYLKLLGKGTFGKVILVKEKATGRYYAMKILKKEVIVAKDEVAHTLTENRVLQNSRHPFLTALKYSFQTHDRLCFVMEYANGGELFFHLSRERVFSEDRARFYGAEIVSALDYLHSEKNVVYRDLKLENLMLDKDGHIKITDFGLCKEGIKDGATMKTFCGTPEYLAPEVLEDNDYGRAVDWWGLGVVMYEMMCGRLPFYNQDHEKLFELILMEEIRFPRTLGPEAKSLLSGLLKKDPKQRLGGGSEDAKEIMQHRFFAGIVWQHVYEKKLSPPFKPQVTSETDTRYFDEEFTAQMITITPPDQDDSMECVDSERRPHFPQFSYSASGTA
Sequence of Platelet-derived growth factor receptor beta (Homo sapiens) (P09619 whole entry): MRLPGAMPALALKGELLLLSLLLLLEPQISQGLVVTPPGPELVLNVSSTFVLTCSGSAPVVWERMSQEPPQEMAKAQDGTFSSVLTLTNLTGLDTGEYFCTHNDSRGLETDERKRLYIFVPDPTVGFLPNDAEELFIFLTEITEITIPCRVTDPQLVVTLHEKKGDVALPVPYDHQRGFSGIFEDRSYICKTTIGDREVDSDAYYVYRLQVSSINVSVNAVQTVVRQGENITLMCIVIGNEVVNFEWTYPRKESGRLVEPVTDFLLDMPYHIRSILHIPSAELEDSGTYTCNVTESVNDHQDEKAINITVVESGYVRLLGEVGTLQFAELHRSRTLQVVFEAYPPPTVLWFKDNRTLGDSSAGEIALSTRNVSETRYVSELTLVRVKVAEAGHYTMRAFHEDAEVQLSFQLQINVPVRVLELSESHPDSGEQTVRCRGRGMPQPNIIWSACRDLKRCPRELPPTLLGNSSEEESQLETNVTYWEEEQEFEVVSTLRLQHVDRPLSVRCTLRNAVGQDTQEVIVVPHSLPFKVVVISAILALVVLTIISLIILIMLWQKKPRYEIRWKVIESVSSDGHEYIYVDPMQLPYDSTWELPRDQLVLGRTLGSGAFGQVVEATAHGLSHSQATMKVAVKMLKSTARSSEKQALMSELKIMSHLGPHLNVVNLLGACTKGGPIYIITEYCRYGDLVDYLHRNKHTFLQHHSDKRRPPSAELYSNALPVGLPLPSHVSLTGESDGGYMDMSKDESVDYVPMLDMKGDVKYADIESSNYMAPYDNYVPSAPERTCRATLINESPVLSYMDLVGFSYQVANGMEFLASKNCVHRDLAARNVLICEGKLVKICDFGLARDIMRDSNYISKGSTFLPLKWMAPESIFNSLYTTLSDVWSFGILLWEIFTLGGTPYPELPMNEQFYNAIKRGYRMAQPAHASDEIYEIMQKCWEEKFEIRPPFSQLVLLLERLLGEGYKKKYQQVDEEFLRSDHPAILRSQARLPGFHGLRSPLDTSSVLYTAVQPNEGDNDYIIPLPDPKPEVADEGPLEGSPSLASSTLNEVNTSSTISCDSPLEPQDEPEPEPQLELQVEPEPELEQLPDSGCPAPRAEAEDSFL
Sequence of RAF proto-oncogene serine/threonine-protein kinase (Homo sapiens) (P04049 whole entry): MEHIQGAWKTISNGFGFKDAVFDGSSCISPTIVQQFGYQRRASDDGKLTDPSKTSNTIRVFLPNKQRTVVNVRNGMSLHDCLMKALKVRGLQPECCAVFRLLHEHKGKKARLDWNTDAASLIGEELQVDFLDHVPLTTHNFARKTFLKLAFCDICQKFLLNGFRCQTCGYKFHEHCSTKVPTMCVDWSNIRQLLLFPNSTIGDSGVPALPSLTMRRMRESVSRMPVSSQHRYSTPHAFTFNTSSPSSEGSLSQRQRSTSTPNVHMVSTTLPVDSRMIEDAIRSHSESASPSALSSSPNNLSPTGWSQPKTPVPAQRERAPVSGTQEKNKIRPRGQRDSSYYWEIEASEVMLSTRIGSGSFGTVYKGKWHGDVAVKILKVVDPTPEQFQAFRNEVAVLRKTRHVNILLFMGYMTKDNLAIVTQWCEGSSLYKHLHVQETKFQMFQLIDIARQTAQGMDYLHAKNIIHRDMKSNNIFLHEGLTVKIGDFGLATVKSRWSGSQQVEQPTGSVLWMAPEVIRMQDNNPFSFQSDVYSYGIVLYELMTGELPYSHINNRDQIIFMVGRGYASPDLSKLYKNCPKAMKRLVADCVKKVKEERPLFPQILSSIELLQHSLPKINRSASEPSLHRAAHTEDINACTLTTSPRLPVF
Sequence of Cyclin-dependent kinase 1 (Homo sapiens) (P06493 whole entry, looked up): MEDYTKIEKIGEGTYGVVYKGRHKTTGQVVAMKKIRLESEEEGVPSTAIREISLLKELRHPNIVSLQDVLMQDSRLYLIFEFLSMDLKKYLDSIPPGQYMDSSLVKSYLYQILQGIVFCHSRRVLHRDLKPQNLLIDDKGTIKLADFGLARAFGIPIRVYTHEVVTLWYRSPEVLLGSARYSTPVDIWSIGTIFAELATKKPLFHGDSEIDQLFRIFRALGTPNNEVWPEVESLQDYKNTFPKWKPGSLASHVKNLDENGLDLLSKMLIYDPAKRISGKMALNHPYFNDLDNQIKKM
Sequence of Proto-oncogene tyrosine-protein kinase Src (Homo sapiens) (P12931 2-536 limits assumed): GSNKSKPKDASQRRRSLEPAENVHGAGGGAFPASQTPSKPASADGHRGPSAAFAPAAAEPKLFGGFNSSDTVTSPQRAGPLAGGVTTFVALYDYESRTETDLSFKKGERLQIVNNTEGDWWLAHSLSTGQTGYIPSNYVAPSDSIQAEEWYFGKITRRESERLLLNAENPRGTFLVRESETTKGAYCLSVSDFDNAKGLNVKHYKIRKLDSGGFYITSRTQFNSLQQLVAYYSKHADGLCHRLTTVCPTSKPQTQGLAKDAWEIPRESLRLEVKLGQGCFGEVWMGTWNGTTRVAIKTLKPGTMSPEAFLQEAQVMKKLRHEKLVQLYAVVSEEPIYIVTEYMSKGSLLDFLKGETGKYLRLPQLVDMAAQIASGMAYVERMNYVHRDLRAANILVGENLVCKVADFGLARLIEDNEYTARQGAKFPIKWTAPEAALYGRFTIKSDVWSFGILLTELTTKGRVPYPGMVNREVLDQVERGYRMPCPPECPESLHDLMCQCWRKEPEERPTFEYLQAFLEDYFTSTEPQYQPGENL
Sequence of Mitogen-activated protein kinase 3 (Homo sapiens) (P27361 whole entry): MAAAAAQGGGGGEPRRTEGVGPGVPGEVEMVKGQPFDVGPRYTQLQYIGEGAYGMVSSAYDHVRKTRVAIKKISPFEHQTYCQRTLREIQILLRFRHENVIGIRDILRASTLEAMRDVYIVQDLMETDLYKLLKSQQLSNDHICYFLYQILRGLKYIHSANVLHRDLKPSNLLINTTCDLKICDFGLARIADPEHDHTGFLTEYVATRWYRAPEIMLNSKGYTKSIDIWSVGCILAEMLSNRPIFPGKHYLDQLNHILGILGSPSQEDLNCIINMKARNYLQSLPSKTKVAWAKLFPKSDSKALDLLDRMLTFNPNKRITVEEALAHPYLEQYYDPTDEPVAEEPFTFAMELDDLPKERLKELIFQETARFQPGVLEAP
Sequence of Rho-associated protein kinase 1 (Homo sapiens) (Q13464 2-1354 limits assumed): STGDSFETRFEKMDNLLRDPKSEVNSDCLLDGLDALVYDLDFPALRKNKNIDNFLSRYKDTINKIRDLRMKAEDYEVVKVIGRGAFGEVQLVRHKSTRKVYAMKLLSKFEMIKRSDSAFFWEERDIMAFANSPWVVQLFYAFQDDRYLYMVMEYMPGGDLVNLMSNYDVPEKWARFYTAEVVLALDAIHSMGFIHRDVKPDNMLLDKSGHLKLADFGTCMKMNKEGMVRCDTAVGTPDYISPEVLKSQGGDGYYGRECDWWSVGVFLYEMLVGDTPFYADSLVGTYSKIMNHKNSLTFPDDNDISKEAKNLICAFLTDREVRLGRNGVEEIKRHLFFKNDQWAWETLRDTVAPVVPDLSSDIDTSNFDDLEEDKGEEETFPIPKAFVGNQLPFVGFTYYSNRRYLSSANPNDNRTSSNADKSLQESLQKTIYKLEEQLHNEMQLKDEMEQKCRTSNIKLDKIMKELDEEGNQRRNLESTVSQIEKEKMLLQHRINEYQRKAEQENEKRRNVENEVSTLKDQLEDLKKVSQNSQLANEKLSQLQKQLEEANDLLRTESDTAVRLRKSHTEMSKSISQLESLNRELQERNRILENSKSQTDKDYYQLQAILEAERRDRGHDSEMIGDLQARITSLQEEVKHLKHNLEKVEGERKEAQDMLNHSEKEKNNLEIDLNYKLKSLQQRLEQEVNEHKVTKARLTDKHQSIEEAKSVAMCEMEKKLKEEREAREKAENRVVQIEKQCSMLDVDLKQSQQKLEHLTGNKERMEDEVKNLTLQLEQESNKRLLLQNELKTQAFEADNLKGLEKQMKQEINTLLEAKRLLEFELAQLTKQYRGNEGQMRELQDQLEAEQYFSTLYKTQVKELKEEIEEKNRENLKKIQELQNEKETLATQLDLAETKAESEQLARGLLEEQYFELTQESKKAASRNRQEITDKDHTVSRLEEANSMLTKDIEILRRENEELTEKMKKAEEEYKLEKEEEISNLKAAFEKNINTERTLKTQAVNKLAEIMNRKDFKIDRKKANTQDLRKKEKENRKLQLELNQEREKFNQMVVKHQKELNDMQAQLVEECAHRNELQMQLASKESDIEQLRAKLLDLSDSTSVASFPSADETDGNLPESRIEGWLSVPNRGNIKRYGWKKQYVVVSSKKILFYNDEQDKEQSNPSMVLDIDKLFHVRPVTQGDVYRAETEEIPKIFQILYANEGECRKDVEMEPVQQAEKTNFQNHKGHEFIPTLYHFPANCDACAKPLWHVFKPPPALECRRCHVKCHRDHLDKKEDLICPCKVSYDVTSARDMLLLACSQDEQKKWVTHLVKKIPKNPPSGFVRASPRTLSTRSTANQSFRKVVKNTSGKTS

| SMILES | GI50 (HUVEC) | GI50 (MSTO-211H) | GI50 (A-431) | GI50 (HeLa) | further results |
| --- | --- | --- | --- | --- | --- |
| Clc1ccc(CNc2ncc3c(n2)-c2ccccc2SC3)cc1 | 12.3 µM | > 20 µM | > 20 µM | > 20 µM | – |
| COc1ccc(-c2ncc3c(n2)-c2ccccc2SC3)cc1 | 12 µM | > 20 µM | > 20 µM | > 20 µM | – |
| COc1ccc(CNc2ncc3c(n2)-c2ccc(Cl)cc2SC3)cc1 | 12 µM | > 20 µM | > 20 µM | > 20 µM | – |
| Cc1cc(C)c(/C=C2\C(=O)Nc3ccccc32)[nH]1 [SEMAXANIB] | 13.6 µM | – | – | – | inhibition at 10 µM (Aorta [1]): 100%; inhibition at 0.1 µM (Aorta [2]): -12%; inhibition at 5 µM (Aorta [3]): 72%; inhibition at 1 µM (Aorta [4]): -2% |
| Clc1ccc(-c2ncc3c(n2)-c2ccccc2SC3)cc1 | 11.3 µM | > 20 µM | > 20 µM | > 20 µM | – |
| COc1ccc2c(c1)SCc1cnc(-c3ccccc3)nc1-2 | 2.9 µM | 11.9 µM | 6.5 µM | > 20 µM | inhibition [5]: 14.6%; inhibition [6]: -6.3%; inhibition [7]: -2.2%; inhibition [8]: 0.3%; inhibition [9]: -1.7%; IC50 [10]: 4.72 µM; inhibition [11]: 11.6%; inhibition [12]: -6%; inhibition [13]: -4.2%; inhibition [14]: -4%; inhibition [15]: 2.6% |
| COc1ccc(Nc2ncc3c(n2)-c2ccc(OC)cc2SC3)cc1 | 0.74 µM | 1.08 µM | 0.96 µM | 0.83 µM | IC50 [16]: 17.5 µM |
| Clc1ccc(Nc2ncc3c(n2)-c2ccccc2SC3)cc1 | 7.3 µM | 11.5 µM | > 20 µM | 15.6 µM | IC50 [16]: > 50 µM |
| COc1ccc2c(c1)SCc1ncc(-c3ccccc3)nc1-2 | – | – | – | – | GI50 (HL-60): 7.15 µM |
| COc1ccc(Nc2ncc3c(n2)-c2ccc(Cl)cc2SC3)cc1 | 16.4 µM | > 20 µM | 5.8 µM | 2.1 µM | IC50 [10]: 21.6 µM; IC50 [16]: > 50 µM |
| COc1ccc2c(c1)SCc1cnc(NCc3ccc(Cl)cc3)nc1-2 | > 20 µM | > 20 µM | > 20 µM | > 20 µM | – |
| COc1ccc(Nc2ncc3c(n2)-c2ccccc2SC3)cc1 | 0.45 µM | 1.08 µM | 0.96 µM | 0.7 µM | inhibition [5]: 21.6%; inhibition [6]: -0.4%; inhibition [7]: 71.7%; inhibition [8]: 12%; inhibition [9]: -1.8%; inhibition at 10 µM (Aorta [1]): 96%; inhibition [11]: 47.3%; inhibition at 0.1 µM (Aorta [2]): -8%; inhibition [12]: 42%; inhibition [13]: 84.8%; inhibition at 5 µM (Aorta [3]): 95%; inhibition [14]: 1.4%; inhibition [15]: 4.1%; inhibition at 1 µM (Aorta [4]): 9% |
| COc1ccc2c(c1)SCc1cnc(-c3ccc(Cl)cc3)nc1-2 | > 20 µM | > 20 µM | > 20 µM | > 20 µM | – |
| Clc1ccc2c(c1)SCc1cnc(Nc3ccccc3)nc1-2 | > 20 µM | > 20 µM | > 20 µM | > 20 µM | IC50 [16]: > 50 µM |
| COc1ccc2c(c1)SCc1cnc(Nc3ccccc3)nc1-2 | 4.3 µM | 15 µM | > 20 µM | 20.1 µM | IC50 [16]: > 50 µM |
| COc1ccc2c(c1)SCc1cnc(NCc3ccccc3)nc1-2 | > 20 µM | > 20 µM | > 20 µM | > 20 µM | – |
| COc1ccc(CNc2ncc3c(n2)-c2ccccc2SC3)cc1 | > 20 µM | > 20 µM | > 20 µM | > 20 µM | – |
| Clc1ccc2c(c1)SCc1cnc(-c3ccccc3)nc1-2 | 2.3 µM | > 20 µM | > 20 µM | > 20 µM | – |
| COc1ccc(CNc2ncc3c(n2)-c2ccc(OC)cc2SC3)cc1 | > 20 µM | > 20 µM | > 20 µM | > 20 µM | – |
| COc1ccc(-c2ncc3c(n2)-c2ccc(Cl)cc2SC3)cc1 | 4.7 µM | > 20 µM | > 20 µM | > 20 µM | – |
| Clc1ccc(CNc2ncc3c(n2)-c2ccc(Cl)cc2SC3)cc1 | 17 µM | > 20 µM | > 20 µM | > 20 µM | – |
| c1ccc(CNc2ncc3c(n2)-c2ccccc2SC3)cc1 | > 20 µM | > 20 µM | > 20 µM | > 20 µM | – |
| Clc1ccc(-c2ncc3c(n2)-c2ccc(Cl)cc2SC3)cc1 | 15.3 µM | > 20 µM | > 20 µM | > 20 µM | – |
| Clc1ccc(Nc2ncc3c(n2)-c2ccc(Cl)cc2SC3)cc1 | 0.35 µM | 1.6 µM | 2.2 µM | 1.5 µM | inhibition [5]: 5.9%; inhibition [6]: -5.6%; inhibition [7]: 0%; inhibition [8]: 8.8%; inhibition [9]: -4.3%; inhibition at 10 µM (Aorta [1]): 98%; IC50 [10]: 45.7 µM; inhibition [11]: -0.9%; inhibition at 0.1 µM (Aorta [2]): -0.5%; inhibition [12]: 2.5%; inhibition [13]: -3.2%; IC50 [16]: 5.6 µM; inhibition at 5 µM (Aorta [3]): 88%; inhibition [14]: 3%; inhibition [15]: -1.5%; inhibition at 1 µM (Aorta [4]): 15% |
| Clc1ccc2c(c1)SCc1cnc(NCc3ccccc3)nc1-2 | 15.1 µM | > 20 µM | > 20 µM | > 20 µM | – |
| COc1ccc(-c2ncc3c(n2)-c2ccc(OC)cc2SC3)cc1 | 4.8 µM | > 20 µM | > 20 µM | > 20 µM | – |
| c1ccc(Nc2ncc3c(n2)-c2ccccc2SC3)cc1 | 2.4 µM | 11.7 µM | > 20 µM | 10.2 µM | IC50 [16]: 8.2 µM |
| COc1ccc2c(c1)SCc1cnc(Nc3ccc(Cl)cc3)nc1-2 | > 20 µM | > 20 µM | > 20 µM | > 20 µM | IC50 [16]: > 50 µM |
| c1ccc(-c2ncc3c(n2)-c2ccccc2SC3)cc1 | 4 µM | > 20 µM | > 20 µM | > 20 µM | – |
